In article PMC5485613, “A novel TRPM8 agonist relieves dry eye discomfort” (BMC Ophthalmology, 2017):

Tests used:
human TRPM8 = molecular target: T1, human TRPM8 (Homo sapiens, UniProt Q7Z2W7); assay: TRPM8 calcium assay (Fluo-8, FLIPR) in transfected CHO cells; format: cell-based; settings: x Menthol
T1 construct: host or cells: CHO cells, stably transfected
Method: Compounds were tested on Chinese Hamster Ovary (CHO) cells stably transfected with human TRPM8 cDNAs using a Fluo-8 calcium kit and a Fluorescence Imaging Plate Reader ([…]™) instrument. […] Solutions were prepared by diluting stock solutions in a HEPES-buffered physiological saline (HBPS) solution. Test compound and control formulations were loaded in polypropylene or glass-lined 384-well plates, and placed into the FLIPR instrument (Molecular Devices Corporation, Union City, CA, USA). Each was tested at 8 concentrations with n = 4 replicates per determination. […] For […]™ assay, cells were plated in 384-well black wall, flat clear-bottom microtiter plates (Type: BD Biocoat Poly-D-Lysine Multiwell Cell Culture Plate) at approximately 30,000 cells per well. Cells were incubated at 37 °C overnight to reach a near confluent monolayer appropriate for use in a fluorescence assay. The test procedure was to remove the growth media and to add 40 μL of HBPS containing Fluo-8 for 30 min at 37 °C. 10 μL of test compound, vehicle, or control solutions in HBPS were added to each well and read for 4 min. Concentration-response data were analyzed via the FLIPR Control software that is supplied with the FLIPR System (MDS-AT) and fitted to a Hill equation.

[1] = system: hNav1.7 (sodium channels); set-up: method as in ref 63 = [63]; 63. Wei ET. Design of Topical Sensory/cooling TRPM8 agonists for cough. Abstracts of the First International Cough Conference, Guangzhou, China, November 10–11, 2013.; settings: 5 μM; cited from earlier work
cornea = system: cornea; set-up: method as in ref 62 = [62]; 62. Sung MS, Lee HS, Yang JM, Kim JG, Wei ET, Kim SJ, Yoon KC. paper presented at the 111th Annual Meeting of the Korean Ophthalmological Society, Busan, South Korea. 2014.; settings: 2 mg/mL solution sprayed onto the closed eyelid; cited from earlier work
[2] = set-up: method as in ref 28 = [28]; 28. Wei ET. Topical agents for the treatment of sensory discomfort in the nasal membranes. US20150265752 A1, Sept. 24, 2015.; settings: cited from earlier work
eye = settings: cited from earlier work
mouse TRPV1 = molecular target: T2, mouse TRPV1 (Mus musculus, UniProt Q704Y3); assay: TRPV1 calcium imaging (Fura-2) in transfected KNRK cells; format: cell-based; settings: 10 μM
T2 construct: expressed in transfected cells; host or cells: KNRK cells (rat kidney), transiently transfected
T2 sequence (Q704Y3 whole entry): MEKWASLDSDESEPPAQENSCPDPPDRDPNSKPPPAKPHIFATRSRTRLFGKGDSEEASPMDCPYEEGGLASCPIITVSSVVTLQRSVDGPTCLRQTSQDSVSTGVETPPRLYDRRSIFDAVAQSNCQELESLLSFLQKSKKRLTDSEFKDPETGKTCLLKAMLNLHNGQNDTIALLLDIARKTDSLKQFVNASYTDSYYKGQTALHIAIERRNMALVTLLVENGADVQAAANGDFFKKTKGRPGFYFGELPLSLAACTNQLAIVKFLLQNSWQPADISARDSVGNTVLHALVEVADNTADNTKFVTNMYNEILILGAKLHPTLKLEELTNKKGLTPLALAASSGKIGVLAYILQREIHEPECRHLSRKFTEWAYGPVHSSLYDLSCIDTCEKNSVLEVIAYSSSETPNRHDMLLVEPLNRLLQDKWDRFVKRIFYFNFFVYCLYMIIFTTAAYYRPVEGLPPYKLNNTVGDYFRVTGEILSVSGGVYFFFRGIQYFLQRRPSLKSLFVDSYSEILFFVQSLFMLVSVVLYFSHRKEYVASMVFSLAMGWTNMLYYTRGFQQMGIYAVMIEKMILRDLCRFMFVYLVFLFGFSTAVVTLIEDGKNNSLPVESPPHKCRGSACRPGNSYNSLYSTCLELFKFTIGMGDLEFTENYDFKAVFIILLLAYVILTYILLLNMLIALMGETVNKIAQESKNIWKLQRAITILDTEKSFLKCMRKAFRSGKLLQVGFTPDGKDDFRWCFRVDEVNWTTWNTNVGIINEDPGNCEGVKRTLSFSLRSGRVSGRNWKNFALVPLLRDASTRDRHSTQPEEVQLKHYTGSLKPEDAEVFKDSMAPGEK
Method: (§1) To further examine the specificity of C3, tests were conducted on TRPV1 channels and TRPA1 channels expressed in Kirsten murine sarcoma virus transformed rat kidney (KNRK) cells. KNRK cells were cultured as a monolayer and maintained in Dulbeccos’s Modified Eagles’s Medium (Life Technologies), supplemented with 10% fetal bovine serum (Life Technologies), 100 units/mL penicillin and 100 μg/mL streptomycin, in an incubator of 5% CO2 at 37 °C. After suspension, the cells were coated on cover slips for 12 h, then transiently transfected with cDNA (pc3.1 DNA) for TRPV1 or TRPA1 with Lipofectamine 2000 (Invitrogen) for 24 h, and loaded with Fura-2 AM™ (Molecular Probes) for 40 min at 37 °C. After washing and recovery, KNRK cells were imaged at 340 and 380 nm excitation to detect free calcium influx. An increase of 50% of the 340/380 ratio was considered as the response threshold which were measured under masked conditions for plasmids. Compounds were applied to the bath and calcium response was acquired by an inverted Nikon fluorescence microscope with a CoolSnap HQ2 CCD camera (Photometrics, Tucson, AZ). Data were quantified offline with the Nikon-NIS program.

TRPM8-sensory neurons = assay: Calcium imaging of primary sensory neurons from Trpm8 EGFP mice; format: cell-based, mouse; settings: menthol 100 μM
Method: Calcium imaging was used to test the C3 selectivity on TRPM8-sensory neurons. Trpm8 ^+/EGFPmice were gifted by Dr. Yu-Qing Cao, Pain Center of Washington University in Saint Louis, School of Medicine, Missouri. Trigeminal ganglions and dorsal root ganglions from 4 to 5 weeks old mice were collected after CO2 euthanasia and digested for 30–40 min before plated on cover slips (8 mm), which were coated with poly-D-lysine for 40 min before use. Cover slips were gently washed with culture media to remove myelin after incubating for 35–40 min. Calcium imaging was done after incubation overnight at 37 °C, 5% CO2. Neurons were loaded with Fura-2 AM™ (Molecular Probes) for 30 min at room temperature. After washing and recovery, neurons were imaged at 340 and 380 nm excitation to detect free calcium influx. An increase of 50% of the 340/380 ratio was considered as the response threshold which were measured under blinded conditions for genotypes. Compounds were applied to the bath and calcium response was acquired by an inverted Nikon fluorescence microscope with a CoolSnap HQ2 CCD camera (Photometrics, Tucson, AZ). Data was quantified offline with the Nikon-NIS program.

human TRPA1 = molecular target: T3, human TRPA1 (Homo sapiens, UniProt O75762); assay: TRPA1 calcium imaging (Fura-2) in transfected KNRK cells; format: cell-based; settings: positive control, 100 μM
T3 construct: expressed in transfected cells; host or cells: KNRK cells (rat kidney), transiently transfected
T3 sequence (O75762 whole entry): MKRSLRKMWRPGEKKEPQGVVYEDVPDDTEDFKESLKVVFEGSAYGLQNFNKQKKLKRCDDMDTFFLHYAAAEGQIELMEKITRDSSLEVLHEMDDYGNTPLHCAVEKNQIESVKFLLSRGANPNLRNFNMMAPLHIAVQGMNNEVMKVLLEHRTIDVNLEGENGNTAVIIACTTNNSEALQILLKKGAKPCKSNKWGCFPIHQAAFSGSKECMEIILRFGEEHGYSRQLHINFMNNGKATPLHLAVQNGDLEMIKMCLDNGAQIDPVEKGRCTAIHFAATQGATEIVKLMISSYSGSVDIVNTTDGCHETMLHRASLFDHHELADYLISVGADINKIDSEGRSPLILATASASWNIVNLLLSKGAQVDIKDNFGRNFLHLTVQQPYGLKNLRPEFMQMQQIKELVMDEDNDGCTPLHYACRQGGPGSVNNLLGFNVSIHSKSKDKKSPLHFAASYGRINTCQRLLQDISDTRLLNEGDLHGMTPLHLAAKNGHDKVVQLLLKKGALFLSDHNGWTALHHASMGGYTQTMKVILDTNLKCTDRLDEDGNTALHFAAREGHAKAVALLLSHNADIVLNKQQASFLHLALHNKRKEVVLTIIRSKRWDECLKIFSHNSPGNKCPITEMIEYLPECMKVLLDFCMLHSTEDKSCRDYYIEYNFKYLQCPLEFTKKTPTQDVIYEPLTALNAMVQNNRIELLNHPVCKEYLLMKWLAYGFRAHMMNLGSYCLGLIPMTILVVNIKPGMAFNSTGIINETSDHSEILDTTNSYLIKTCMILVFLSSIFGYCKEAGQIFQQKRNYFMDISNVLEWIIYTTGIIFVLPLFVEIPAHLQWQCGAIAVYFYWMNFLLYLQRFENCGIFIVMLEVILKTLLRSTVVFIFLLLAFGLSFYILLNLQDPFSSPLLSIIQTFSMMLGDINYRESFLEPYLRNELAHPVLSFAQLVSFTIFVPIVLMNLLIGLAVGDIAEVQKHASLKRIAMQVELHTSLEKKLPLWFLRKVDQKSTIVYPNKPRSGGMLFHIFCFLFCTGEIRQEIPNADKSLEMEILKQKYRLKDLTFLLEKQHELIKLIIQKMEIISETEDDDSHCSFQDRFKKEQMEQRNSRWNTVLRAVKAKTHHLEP
Method: as §1

T1 sequence (Q7Z2W7 whole entry): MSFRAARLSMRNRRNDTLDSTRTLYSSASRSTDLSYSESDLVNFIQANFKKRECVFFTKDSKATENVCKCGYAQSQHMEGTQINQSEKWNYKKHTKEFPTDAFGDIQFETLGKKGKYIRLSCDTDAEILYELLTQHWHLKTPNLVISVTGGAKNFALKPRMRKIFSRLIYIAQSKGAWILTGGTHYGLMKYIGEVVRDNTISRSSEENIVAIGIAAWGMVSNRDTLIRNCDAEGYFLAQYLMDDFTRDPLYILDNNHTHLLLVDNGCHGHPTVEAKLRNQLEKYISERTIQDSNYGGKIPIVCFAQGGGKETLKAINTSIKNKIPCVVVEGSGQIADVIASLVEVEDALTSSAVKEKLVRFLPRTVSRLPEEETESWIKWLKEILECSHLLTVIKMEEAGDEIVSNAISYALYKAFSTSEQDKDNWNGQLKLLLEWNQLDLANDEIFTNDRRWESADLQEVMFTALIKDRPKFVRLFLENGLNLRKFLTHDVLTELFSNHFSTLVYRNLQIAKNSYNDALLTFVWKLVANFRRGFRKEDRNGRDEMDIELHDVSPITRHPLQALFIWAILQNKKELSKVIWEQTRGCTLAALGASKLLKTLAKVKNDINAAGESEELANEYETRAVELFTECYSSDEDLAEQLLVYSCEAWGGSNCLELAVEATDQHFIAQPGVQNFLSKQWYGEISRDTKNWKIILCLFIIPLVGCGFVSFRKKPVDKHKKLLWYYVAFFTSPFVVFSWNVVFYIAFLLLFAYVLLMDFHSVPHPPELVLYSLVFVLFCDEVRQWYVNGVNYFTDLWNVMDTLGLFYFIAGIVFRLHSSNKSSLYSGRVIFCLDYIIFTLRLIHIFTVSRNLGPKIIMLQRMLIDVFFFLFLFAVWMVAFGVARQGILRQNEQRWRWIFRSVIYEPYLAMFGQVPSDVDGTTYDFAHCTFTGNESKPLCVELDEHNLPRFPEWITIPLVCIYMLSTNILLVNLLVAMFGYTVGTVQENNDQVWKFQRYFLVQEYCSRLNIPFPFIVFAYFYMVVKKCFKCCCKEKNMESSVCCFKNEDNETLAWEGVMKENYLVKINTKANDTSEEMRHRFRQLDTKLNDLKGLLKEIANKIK

| relative potency to l-menthol (menthol = 1) (human TRPM8) | Structure (SMILES) | further results |
| --- | --- | --- |
| 0.9 | CCC(C)P(=O)(CCC(C)C)C(C)CC (stereo not shown) [1-di-sec-butylphosphoryl-3-methyl-butane] |  |
| 0.3 | CCCCP(=O)(C(C)CC)C(C)CC (stereo not shown) [1-di-sec-butylphosphoryl-4] |  |
| 3.4 | CCCCCCCP(=O)(C(C)CC)C(C)CC (stereo not shown) [1-di-sec-butylphosphoryl-heptane] |  |
| 4.7 | CCCCCCP(=O)(C(C)CC)C(C)CC (stereo not shown) [1-di-sec-butylphosphoryl-hexane] |  |
| 2.9 | CCCCCCCCP(=O)(C(C)CC)C(C)CC (stereo not shown) [1-di-sec-butylphosphoryl-octane] |  |
| 2.2 | CCCCCP(=O)(C(C)CC)C(C)CC (stereo not shown) [1-di-sec-butylphosphoryl-pentane] | lidocaine-like activity on hNav1.7 [1]: did not have lidocaine-like activity; corneal sensitivity (cornea): not affected |
| 0.2 | CCCCCP(=O)(CC(C)C)CC(C)C [1-diisobutylphosphoryl-pentane] |  |
| 5.4 | CCCCCCCP(=O)(C(C)C)C(C)C [1-diisopropylphosphoryl-heptane] |  |
| 1.6 | CCCCCCP(=O)(C(C)C)C(C)C [1-diisopropylphosphoryl-hexane] |  |
| 5.4 | CCCCCCCCP(=O)(C(C)C)C(C)C [1-diisopropylphosphoryl-octane] |  |
| 0.7 | CCCCCP(=O)(C(C)C)C(C)C [1-diisopropylphosphoryl-pentane] |  |
|  | O=C1NC(c2cccc([N+](=O)[O-])c2)=CCN1c1ccccc1O [Icilin, icilin] | solubility in ophthalmic vehicles [2]: not soluble; sensation on the eyelids (eye; anecdotal): punctate and long-lasting cooling |
|  | COc1cc(CNC(=O)CCCC/C=C/C(C)C)ccc1O [capsaicin, reference compound] | activation of TRPV1 (calcium response) (mouse TRPV1): active |
|  | CC(C)[C@@H]1CC[C@@H](C)C[C@H]1O [l-menthol, reference compound] | calcium response of Trpm8 EGFPf/+ neurons (TRPM8-sensory neurons): sensitive; eye sensation after menthol solutions (eye): stinging followed by a brief episode of cooling |
|  | C=CCN=C=S [mustard oil, reference compound] | activation of TRPA1 (calcium response) (human TRPA1): active |
